# Data taken from patent US8895585B2, “Nicotinamide derivative or salt thereof” (FUJIFILM Corporation, priority 2010, dated 2014).
# Molecular target: T1, glutathione S-transferase (GST)-fused full-length human Syk protein (Homo sapiens, UniProt P43405)
# T1 construct: (GST)-fused full-length human Syk protein; GST (glutathione S-transferase); purchased Carna Biosciences
# Assay: Syk enzyme assay
# Format: biochemical
# Settings: Syk enzyme assay, Test Example 1; read-out: IC50 of Syk-inhibitory activity
# Procedure, shortened: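 GST-tagged full-length human Syk (baculovirus) preincubated with compound 15 min at room temperature (pH 7.0, 10 mM MgCl2), then reacted 40 min with 0.4 μM biotinylated peptide substrate and 27 μM ATP (final). Phosphorylation read by HTRF (615/665 nm) after EDTA stop; IC50 reported.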
row,Compound,IC50
1,CCOc1ccc2cc(Nc3nc(NC4CCCCC4N)c(F)cc3C(N)=O)ccc2n1 (stereo not drawn) [Example 002-103],< 10 nM
2,CCCOc1ccc2cc(Nc3nc(NC4CCCCC4N)c(F)cc3C(N)=O)ccc2n1 (stereo not drawn) [Example 002-104],< 10 nM
3,CC(C)COc1ccc2cc(Nc3nc(NC4CCCCC4N)c(F)cc3C(N)=O)ccc2n1 (stereo not drawn) [Example 002-105],10 to 50 nM
4,CCC(C)COc1ccc2cc(Nc3nc(NC4CCCCC4N)c(F)cc3C(N)=O)ccc2n1 (stereo not drawn) [Example 002-106],50 to 100 nM
5,CCOCCOc1ccc2cc(Nc3nc(NC4CCCCC4N)c(F)cc3C(N)=O)ccc2n1 (stereo not drawn) [Example 002-107],< 10 nM
6,CCCCOCCOc1ccc2cc(Nc3nc(NC4CCCCC4N)c(F)cc3C(N)=O)ccc2n1 (stereo not drawn) [Example 002-108],10 to 50 nM
7,CC(C)COCCOc1ccc2cc(Nc3nc(NC4CCCCC4N)c(F)cc3C(N)=O)ccc2n1 (stereo not drawn) [Example 002-109],10 to 50 nM
8,CCCCOCCOCCOc1ccc2cc(Nc3nc(NC4CCCCC4N)c(F)cc3C(N)=O)ccc2n1 (stereo not drawn) [Example 002-111],10 to 50 nM
9,NC(=O)c1cc(F)c(NC2CCCCC2N)nc1Nc1ccc2nc(OCC3CCCO3)ccc2c1 (stereo not drawn) [Example 002-112],< 10 nM
10,COCCn1c(=O)ccc2cc(Nc3nc(NC4CCCCC4N)c(F)cc3C(N)=O)cnc21 (stereo not drawn) [Example 002-116],50 to 100 nM
11,COc1nc2ccc(Nc3nc(NC4CCCCC4N)c(F)cc3C(N)=O)cc2nc1OC (stereo not drawn) [Example 002-119],< 10 nM
12,CCOc1nc2ccc(Nc3nc(NC4CCCCC4N)c(F)cc3C(N)=O)cc2nc1OCC (stereo not drawn) [Example 002-120],< 10 nM
13,COCCOc1nc2ccc(Nc3nc(NC4CCCCC4N)c(F)cc3C(N)=O)cc2nc1OCCOC (stereo not drawn) [Example 002-121],100 to 1000 nM
14,CN1CCOc2nc3ccc(Nc4nc(NC5CCCCC5N)c(F)cc4C(N)=O)cc3nc21 (stereo not drawn) [Example 002-122],< 10 nM
15,CCc1nc2ccc(Nc3nc(NC4CCCCC4N)c(F)cc3C(N)=O)cc2nc1CC (stereo not drawn) [Example 002-124],< 10 nM
16,CC1CN(c2ccc(Nc3nc(NC4CCCCC4N)c(F)cc3C(N)=O)cn2)CC(C)O1 (stereo not drawn) [Example 002-127],10 to 50 nM
17,NCCNCCNc1nc(Nc2ccc3ncccc3c2)c(C(N)=O)cc1F [Example 002-128],100 to 1000 nM
18,NCCNCCNc1nc(Nc2ccnc(-n3nccn3)c2)c(C(N)=O)cc1F [Example 002-129],100 to 1000 nM
19,NCCNCCNc1nc(Nc2ccnc(-n3cncn3)c2)c(C(N)=O)cc1F [Example 002-130],100 to 1000 nM

row,Compound,IC50
1,COc1ccccc1-c1cc(Nc2nc(NC3CCCCC3N)c(F)cc2C(N)=O)ccn1 (stereo not drawn) [Example 002-132],10 to 50 nM
2,NC(=O)c1cc(F)c(NC2CCCCC2N)nc1Nc1ccnc(-c2ccc(F)cc2F)c1 (stereo not drawn) [Example 002-133],< 10 nM
3,Cc1ncc(Nc2nc(NC3CCCCC3N)c(F)cc2C(N)=O)cc1-n1cccn1 (stereo not drawn) [Example 002-135],10 to 50 nM
4,COc1ccc(-c2cc(Nc3nc(NC4CCCCC4N)c(F)cc3C(N)=O)ccn2)c(OC)c1 (stereo not drawn) [Example 002-136],50 to 100 nM
5,Cc1ncc(Nc2nc(NC3CCCCC3N)c(F)cc2C(N)=O)cc1-n1cncn1 (stereo not drawn) [Example 002-138],50 to 100 nM
6,NC(=O)c1cc(F)c(NC2CCCCC2N)nc1Nc1ccc2cc(-n3cccn3)cnc2c1 (stereo not drawn) [Example 002-143],< 10 nM
7,NC(=O)c1cc(F)c(NC2CCCCC2N)nc1Nc1ccnc(-c2cc(F)ccc2F)c1 (stereo not drawn) [Example 002-145],< 10 nM
8,NC(=O)c1cc(F)c(NC2CCCCC2N)nc1Nc1ccnc(-c2cccc(Cl)c2F)c1 (stereo not drawn) [Example 002-146],< 10 nM
9,NC(=O)c1cc(F)c(NC2CCCCC2N)nc1Nc1ccnc(-c2cc(Cl)ccc2F)c1 (stereo not drawn) [Example 002-147],< 10 nM
10,COc1ncc(Nc2nc(NC3CCCCC3N)c(F)cc2C(N)=O)cc1-c1ccccc1 (stereo not drawn) [Example 002-148],10 to 50 nM
11,COc1ncc(Nc2nc(NC3CCCCC3N)c(F)cc2C(N)=O)cc1-c1ccccc1F (stereo not drawn) [Example 002-149],10 to 50 nM
12,COc1ncc(Nc2nc(NC3CCCCC3N)c(F)cc2C(N)=O)cc1-c1ccco1 (stereo not drawn) [Example 002-150],10 to 50 nM
13,COc1ncc(Nc2nc(NC3CCCCC3N)c(F)cc2C(N)=O)cc1-c1ccoc1 (stereo not drawn) [Example 002-151],10 to 50 nM
14,COc1ncc(Nc2nc(NC3CCCCC3N)c(F)cc2C(N)=O)cc1C (stereo not drawn) [Example 002-152],10 to 50 nM
15,COc1ncc(Nc2nc(NC3CCCCC3N)c(F)cc2C(N)=O)cc1C1CC1 (stereo not drawn) [Example 002-153],10 to 50 nM
16,COc1ncc(Nc2nc(NC3CCCCC3N)c(F)cc2C(N)=O)cc1-n1cccn1 (stereo not drawn) [Example 002-154],10 to 50 nM
17,NC(=O)c1cc(F)c(NC2CCCCC2N)nc1Nc1ccc(N2CCCC2=O)nc1 (stereo not drawn) [Example 002-156],50 to 100 nM
18,NC(=O)c1cc(F)c(NC2CCCCC2N)nc1Nc1ccc(N2CCCCC2=O)nc1 (stereo not drawn) [Example 002-157],100 to 1000 nM

# Next, values leading:
row,IC50,Compound
1,100 to 1000 nM,CC1(C)Oc2cccnc2N(c2ccc(Nc3nc(NC4CCCCC4N)c(F)cc3C(N)=O)cn2)C1=O (stereo not drawn) [Example 002-159]
2,50 to 100 nM,NC(=O)c1cc(F)c(NC2CCCCC2N)nc1Nc1ccc(-n2nccn2)nc1 (stereo not drawn) [Example 002-161]
3,100 to 1000 nM,NC(=O)c1cc(F)c(NC2CCCCC2N)nc1Nc1ccc(N2CCOCC2=O)nc1 (stereo not drawn) [Example 002-162]
4,50 to 100 nM,Cc1cc(Nc2nc(NC3CCCCC3N)c(F)cc2C(N)=O)c(F)cn1 (stereo not drawn) [Example 002-164]
5,100 to 1000 nM,NC(=O)c1cc(F)c(NC2CCCCC2N)nc1Nc1cc(N2CCOCC2)ncc1F (stereo not drawn) [Example 002-166]
6,10 to 50 nM,NC(=O)c1cc(F)c(NC2CCCCC2N)nc1Nc1ccnc(-c2ccccc2)c1F (stereo not drawn) [Example 002-167]
7,10 to 50 nM,NC(=O)c1cc(F)c(NC2CCCCC2N)nc1Nc1cc(-c2ccccc2)ncc1F (stereo not drawn) [Example 002-168]
8,50 to 100 nM,COc1cc(-c2cncc(Nc3nc(NC4CCCCC4N)c(F)cc3C(N)=O)c2)cc(OC)c1OC (stereo not drawn) [Example 002-171]
9,50 to 100 nM,NC(=O)c1cc(F)c(NC2CCCCC2N)nc1Nc1cncc(-c2ccc(OC(F)(F)F)cc2)c1 (stereo not drawn) [Example 002-174]
10,< 10 nM,NC(=O)c1cc(F)c(NC2CCCCC2N)nc1Nc1ccnc(-c2ccc3c(c2)OCO3)c1 (stereo not drawn) [Example 002-176]
11,< 10 nM,NC(=O)c1cc(F)c(NC2CCCCC2N)nc1Nc1cncc(-c2ccc3c(c2)NC(=O)CO3)c1 (stereo not drawn) [Example 002-177]
12,< 10 nM,NC(=O)c1cc(F)c(NC2CCCCC2N)nc1Nc1ccnc(-c2ccc3c(c2)NC(=O)CO3)c1 (stereo not drawn) [Example 002-178]
13,50 to 100 nM,NC(=O)c1cc(F)c(NC2CCCCC2N)nc1Nc1cncc(-c2cccc3cnccc23)c1 (stereo not drawn) [Example 002-179]
14,50 to 100 nM,NC(=O)c1cc(F)c(NC2CCCCC2N)nc1Nc1ccnc(-c2cccc3cnccc23)c1 (stereo not drawn) [Example 002-180]
15,50 to 100 nM,NC(=O)c1cc(F)c(NC2CCCCC2N)nc1Nc1cncc(-c2cccc3cccnc23)c1 (stereo not drawn) [Example 002-181]
16,100 to 1000 nM,NC(=O)c1cc(F)c(NC2CCCCC2N)nc1Nc1ccnc(-c2cccc3cccnc23)c1 (stereo not drawn) [Example 002-182]
17,< 10 nM,COc1cccc(-c2cc(Nc3nc(NC4CCCCC4N)c(F)cc3C(N)=O)ccn2)c1 (stereo not drawn) [Example 002-183]
18,< 10 nM,COc1ccc(-c2cc(Nc3nc(NC4CCCCC4N)c(F)cc3C(N)=O)ccn2)cc1 (stereo not drawn) [Example 002-184]
19,< 10 nM,NC(=O)c1cc(F)c(NC2CCCCC2N)nc1Nc1ccnc(-c2ccc3cccnc3c2)c1 (stereo not drawn) [Example 002-192]
20,< 10 nM,NC(=O)c1cc(F)c(NC2CCCCC2N)nc1Nc1ccnc(-c2ccc3ccncc3c2)c1 (stereo not drawn) [Example 002-194]
